Source: patent US20110065796A1 (SHIRE LLC, priority 2009, published 2011)
Where a name gives a salt, the structure may show the parent alone. Read-outs that look alike come from different tables or passages of the source.

Legend:
[1] = Comparative bioavailability study of guanfacine in monkeys given guanfacine or prodrug conjugates; format: in vivo, cynomolgus monkey; conditions: oral, monkey
Experimental: The characteristics of the test animals are set out in Table 13.
The following pharmacokinetic parameters derived from the plasma analytical data were determined using Win Nonlin;

[2] = Prodrug stability in simulated intestinal fluid; conditions: 37° C., pH 6.8, HPLC
Experimental: (§1) The remaining concentrations of the prodrugs were then assayed by H PLC.

[3] = Prodrug stability in freshly withdrawn porcine intestinal fluid; format: in vitro ADME; conditions: for Prodrug remaining at 3 h: porcine intestinal fluid pH 6.8, 37° C., in % (unit assumed)
Source text: Many of the peptidases in the intestinal lumen may not be present in the USP simulated intestinal fluid preparations previously described. […] The prodrugs evaluated were selected on the basis of adequate pharmacokinetics (see Example 8).

[4] = Pharmacokinetics in rat hepatic portal and tail veins after oral administration; format: in vivo
Experimental: Rats were surgically prepared under isofluorane anaesthesia by attaching a silicon catheter to the portal vein then exteriorising it at the nape of the neck with a blood collection port attached.
At each sampling time serial point blood samples (approximately 0.2 mL) were taken simultaneously from the lateral tail vein cannula and the hepatic portal cannula. After collection of the final blood sample each animal was killed by cervical dislocation. Blood samples were collected at 15, 30 minutes and 1, 2, 4, 8 and 24 hours post dose.
Pharmacokinetic parameters in portal and systemic plasma were derived by non-compartmental analysis (linear/logarithmic trapezoidal) using WinNonlin (Version 4.1) software.

[5] = Prodrug stability in simulated gastric fluid; conditions: 37° C., pH 1.1, HPLC
Experimental: as §1

human α-2A adrenoceptor = biological target: T1, human α-2A adrenoceptor (Homo sapiens, UniProt P08913); experiment: α-2A adrenoceptor binding assay ([3H] RX821002 competition, recombinant CHO cells); conditions: [3H] RX821002 (1 nM)
T1 construct: expressed in transfected cells; host or cells: CHO cells
T1 sequence (P08913 1-465): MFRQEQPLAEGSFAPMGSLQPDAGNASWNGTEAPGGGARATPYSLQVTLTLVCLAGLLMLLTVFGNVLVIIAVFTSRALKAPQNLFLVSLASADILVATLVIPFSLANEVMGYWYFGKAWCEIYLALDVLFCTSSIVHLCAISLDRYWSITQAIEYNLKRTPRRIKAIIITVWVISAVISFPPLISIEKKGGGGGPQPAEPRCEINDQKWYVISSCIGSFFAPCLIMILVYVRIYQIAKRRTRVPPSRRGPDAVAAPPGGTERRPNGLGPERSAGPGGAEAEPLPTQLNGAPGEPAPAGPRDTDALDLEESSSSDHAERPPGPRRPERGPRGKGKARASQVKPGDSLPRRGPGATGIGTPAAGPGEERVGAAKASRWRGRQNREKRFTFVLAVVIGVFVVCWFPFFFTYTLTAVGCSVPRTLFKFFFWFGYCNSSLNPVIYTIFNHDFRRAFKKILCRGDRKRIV
Experimental: The activation of this receptor is responsible for its intended therapeutic effect.
The binding assay methodology employed in this study followed that described by Langin et al. (Eur. J. Pharmacol. 167:95-104, 1989) and used human recombinant CHO cells expressing α-2 adrenoceptors. The competitive binding ligand was [3H] RX821002 (1 nM) which has a high affinity for the alpha-2A subtype.

[6] = system: gastrointestinal transit of a charcoal meal in the rat; experiment: Charcoal propulsion test (gut motility) in rat; format: in vivo; conditions: oral
Experimental: The effect of a drug on gut motility can be studied by means of the charcoal propulsion test.
The method used was based on that described by Takemori et al. (J. Pharmacol. Exp. Ther. 169:39, 1969). Test treatments were administered orally 60 minutes prior to an oral dose of a 10% suspension of charcoal in 2.5% gum Arabic (2 ml/kg). Twenty minutes after dosing with charcoal, the rats were sacrificed and the entire gastrointestinal tract was removed quickly and carefully. The distance that the charcoal meal had traveled toward the caecum was measured and expressed as a percentage of the total gut length.

[7] = cited from earlier work
[8] = Comparative pharmacokinetic screening study in the monkey (relative Cmax of guanfacine); conditions: cynomolgus monkey, in vivo, po
Experimental: Blood samples were taken on 4 sampling occasions at various times up to 6 hours after administration and submitted to analysis for the parent drug and prodrug using a qualified LC-MS-MS assay.

[9] = Comparative bioavailability study in monkeys in the fasted or fed state; format: in vivo, cynomolgus monkey; conditions: male, cynomolgus monkey, plasma, po, 0.5 mg/kg, 0.5 mg/kg guanfacine equivalent dose, oral, read-out: mean Cmax prodrug
Experimental: Five male cynomolgus monkeys were used. Food was withdrawn from animals in fasted groups from the evening of the day prior to dosing until approximately 4 hours after dosing.
The formulations were prepared on the day of dosing and administered orally as soon as practicable up to a maximum of 2 hours after formulation.
Blood samples (0.5 mL) were collected from all animals pre-dose and at 0.5, 1, 2, 3, 4, 6, 8 10, 12, 16 and 24 hours after dosing.
Following processing, the resultant plasma was frozen and analysed by a qualified method. Pharmacokinetic evaluation was performed using a validated pharmacokinetic software package.

[10] = Study 1, dose 0.1 mg/kg guanfacine free base equivalents
[11] = Study 1, dose 0.3 mg/kg guanfacine free base equivalents
[12] = Study 1, dose 1 mg/kg guanfacine free base equivalents
[13] = Study 1, dose 3 mg/kg guanfacine free base equivalents
[14] = Study 1, dose 5 mg/kg guanfacine free base equivalents

| Structure (SMILES) | plasma guanfacine profile (in words) [1] | % prodrug remaining following incubation for 2 h in simulated intestinal fluid pH 6.8 [2] [%] | Prodrug remaining at 3 h [3] | % prodrug remaining following incubation for 1 h in simulated gastric fluid pH 1.1 [5] [%] | Ki (human α-2A adrenoceptor) [µM] | % change in GI transit vs vehicle [6, 10] [%] | % change in GI transit vs vehicle [6, 11] [%] | % change in GI transit vs vehicle [6, 12] [%] | % change in GI transit vs vehicle [6, 13] [%] | % change in GI transit vs vehicle [6, 14] [%] | further results |
| --- | --- | --- | --- | --- | --- | --- | --- | --- | --- | --- | --- |
| CC(C)[C@@H](N)C(=O)N[C@@H](CCC(=O)NC(=N)NC(=O)Cc1c(Cl)cccc1Cl)C(=O)O [Compound 5, Guanfacine ((S)-γ-Glutamate-(R)-Valine) Amide] | sustained guanfacine concentrations | 89 | 91.2 | 86 | 1.6 | −6 | −22 | −48 | −44 | −42 | AUC ([4]; hepatic portal vein plasma, po, 1 mg/kg, read-out: Hepatic portal vein Prodrug AUC): 61 ng·h/mL; Cmax ([4]; hepatic portal vein plasma, po, 1 mg/kg, read-out: Hepatic portal vein Prodrug Cmax): 41.5 ng/mL; AUC ([4]; tail vein (systemic) plasma, po, 1 mg/kg, read-out: Tail vein Prodrug AUC): 4.6 ng·h/mL; Cmax ([4]; tail vein (systemic) plasma, po, 1 mg/kg, read-out: Tail vein Prodrug Cmax): 3.5 ng/mL; % change in GI transit vs vehicle ([6]; Study 1, dose 1.7 mg/kg guanfacine free base equivalents): −50% |
| N=C(N)NC(=O)Cc1c(Cl)cccc1Cl [Guanfacine, N-Amidino-2-(2,6-dichlorophenyl)acetamide monohydrochloride, reference compound] | – | – | – | – | – | −52 | −55 | −47 | – | – | bioavailability of guanfacine in man [7]: > 80%; bioavailability [8]: 35%; % change in GI transit vs vehicle ([6]; Study 2, dose 0.03 mg/kg guanfacine free base equivalents): −13%; % change in GI transit vs vehicle ([6]; Study 2, dose 0.1 mg/kg guanfacine free base equivalents): −41%; % change in GI transit vs vehicle ([6]; Study 2, dose 0.3 mg/kg guanfacine free base equivalents): −56%; reduction in the distance traveled by the charcoal plug within 20 minutes, compared to control group ([6]; 0.1 mg base/kg): 41-52% |
| CC(C)[C@H](NC(=O)CCCC(=O)NC(=N)NC(=O)Cc1c(Cl)cccc1Cl)C(=O)O [Compound 1, Guanfacine (Glutaryl-(S)-Valine) Amide] | sustained guanfacine concentrations | 92 | 100.6 | 80 | 7.2 | −9 | −6 | −45 | −50 | −53 | Cmax ([9]; Fasted): 9.23 ng/mL; Cmax ([9]; Fed): 7.19 ng/mL; stability in porcine intestinal fluid (in words) ([3]; porcine intestinal fluid): high stability; AUC ([4]; hepatic portal vein plasma, oral, 0.5 mg/kg (footnote *), read-out: Hepatic portal vein Prodrug AUC): 159 ng·h/mL; Cmax ([4]; hepatic portal vein plasma, oral, 0.5 mg/kg (footnote *), read-out: Hepatic portal vein Prodrug Cmax): 56.3 ng/mL; AUC ([4]; tail vein (systemic) plasma, oral, 0.5 mg/kg (footnote *), read-out: Tail vein Prodrug AUC): 29.6 ng·h/mL; Cmax ([4]; tail vein (systemic) plasma, oral, 0.5 mg/kg (footnote *), read-out: Tail vein Prodrug Cmax): 8.26 ng/mL |
